This note sets out measurements from patent publication US8268815B2, “Pyrimidine compounds and use thereof” (Abbott GmbH & Co. KG, priority 2004, dated 2012).

The term Ki denotes a dissociation constant, usually derived from enzyme kinetics or from competition with a known ligand. A lower Ki goes with higher affinity.

The target in experiment [1] is T1, human dopamine D3 receptors (Homo sapiens, UniProt P35462).
T1 construct: expressed in transfected cells
The experiment can be described thus: Dopamine D3 receptor binding, displacement of [125I]-iodosulpiride. Particulars: membranes from HEK-293 cells with stably expressed human D3 receptors, 0.1 nM [125I]-iodosulpiride. The procedure:
(§1) The substance to be tested was dissolved either in methanol/Chremophor® (BASF-AG) or in dimethyl sulfoxide and then diluted with water to the desired concentration.
(§2) Triplicate mixtures were carried out.
The incubation buffer comprised 50 mM Tris, 120 mM NaCl, 5 mM KCl, 2 mM CaCl2, 2 mM MgCl2 and 0.1% bovine serum albumin, 10 μM quinolone, 0.1% ascorbic acid (prepared fresh each day). The buffer was adjusted to pH 7.4 with HCl.
(§3) III. Measurement and Evaluation:
(§4) After incubation at 25° C. for 60 minutes, the mixtures were filtered under vacuum through Whatman GF/B glass fiber filters using a cell harvester. The filters were transferred by a filter transfer system into scintillation vials. After addition of 4 ml of Ultima Gold® (Packard), the samples were shaken for one hour and then the radioactivity was counted in a beta counter (Packard, Tricarb 2000 or 2200CA). The cp values were converted into dpm by means of a standard quench series with the aid of the instrument's own program.
(§5) Evaluation of the inhibition plots took place by iterative nonlinear regression analysis using the Statistical Analysis System (SAS) similar to the “LIGAND” program described by Munson and Rodbard.
For orientation: In a radioligand displacement assay an active substance lowers the binding of a labelled ligand.

The target in experiment [2] is T2, human dopamine D2L receptors (long isoform) (Homo sapiens, UniProt P14416).
T2 construct: expressed in transfected cells
T2 sequence (P14416 whole entry, canonical isoform): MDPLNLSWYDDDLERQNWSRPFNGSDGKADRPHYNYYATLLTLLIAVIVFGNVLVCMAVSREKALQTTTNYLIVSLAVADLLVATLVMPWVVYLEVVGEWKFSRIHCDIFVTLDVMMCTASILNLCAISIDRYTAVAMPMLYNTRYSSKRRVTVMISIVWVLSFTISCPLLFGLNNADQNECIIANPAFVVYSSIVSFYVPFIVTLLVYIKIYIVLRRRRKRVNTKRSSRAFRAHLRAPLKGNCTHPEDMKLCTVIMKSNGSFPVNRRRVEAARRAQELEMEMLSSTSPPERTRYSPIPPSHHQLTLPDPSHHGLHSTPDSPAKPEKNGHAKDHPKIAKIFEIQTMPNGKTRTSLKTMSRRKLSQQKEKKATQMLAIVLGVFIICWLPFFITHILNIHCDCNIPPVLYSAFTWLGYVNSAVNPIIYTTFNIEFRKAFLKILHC
The experiment can be described thus: Dopamine D2L receptor binding, displacement of [125I]-iodospiperone. As to conditions: ratio Ki(D2L)/Ki(D3); HEK-293 membranes. The method, then:
as §1
II. Dopamine D2L Receptor:
as §2
The incubation buffer comprised 50 mM Tris, 120 mM NaCl, 5 mM KCl, 2 mM CaCl2, 2 mM MgCl2 and 0.1% bovine serum albumin. The buffer was adjusted to pH 7.4 with HCl.
as §3, §4, §5

Each structure is given as a SMILES string.

T1 sequence (P35462 whole entry): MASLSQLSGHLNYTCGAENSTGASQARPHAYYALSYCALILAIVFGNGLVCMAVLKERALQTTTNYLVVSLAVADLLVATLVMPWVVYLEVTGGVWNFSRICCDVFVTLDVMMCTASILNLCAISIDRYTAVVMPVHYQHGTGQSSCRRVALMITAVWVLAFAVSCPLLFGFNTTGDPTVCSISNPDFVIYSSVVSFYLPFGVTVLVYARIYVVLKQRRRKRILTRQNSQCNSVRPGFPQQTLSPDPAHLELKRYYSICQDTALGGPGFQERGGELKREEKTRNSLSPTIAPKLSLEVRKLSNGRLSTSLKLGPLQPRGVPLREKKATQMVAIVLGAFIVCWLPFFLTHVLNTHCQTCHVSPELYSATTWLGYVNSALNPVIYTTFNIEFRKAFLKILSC

`CC(C)(C)c1nc(N2CCN(CCCN3C(=O)COc4ccccc43)CC2)cc(C(F)(F)F)n1` [Example 2, 4-(3-{4-[2-tert-Butyl-6-(trifluoromethyl)pyrimidin-4-yl]piperazin-1-yl}propyl)-2H-1,4-benzoxazin-3(4H)-one]: the inhibition constant Ki in experiment [1] amounted to 12.1 nM. Also, the “Selectivity vs. D2L (Ki(D2L)/Ki(D3))” value in experiment [2] was determined as 29. The matching figures for `CCCc1cc(N2CCN(CCCCN3C(=O)CCCc4c(O)cccc43)CC2)nc(C(C)(C)C)n1` [Example 56, 4-(2-tert-butyl-6-propyl-pyrimidin-4-yl)-1-[4-(6-hydroxy-2-oxo-2,3,4,5-tetrahydro-benzo[b]azepin-1-yl)butyl]piperazine]: 0.69 nM and 26. As for `CC(C)(C)c1nc(N2CCN(CCCN3C(=O)CCc4ccccc43)CC2)cc(C(F)(F)F)n1.Cl` [Example 1, 1-[2-tert-Butyl-6-(trifluoromethyl)pyrimidin-4-yl]-4-[3-(2-oxo-3,4-dihydroquinolin-1(2H)-yl)propyl]piperazin-4-ium chloride], the Ki in experiment [1] came to 3.43 nM. The “Selectivity vs. D2L (Ki(D2L)/Ki(D3))” value in experiment [2] was 37.

In experiment [1], `CC(C)(C)c1nc(N2CCN(C/C=C/CN3C(=O)CCc4ccccc43)CC2)cc(C(F)(F)F)n1` [Example 10, 1-((2E)-4-{4-[2-tert-Butyl-6-(trifluoromethyl)pyrimidin-4-yl]piperazin-1-yl}but-2-enyl)-3,4-dihydroquinolin-2(1H)-one] gave an inhibition constant (Ki) of 9.2 nM. That is a single-digit nanomolar value. `CCCc1cc(N2CCN(CCCCN3C(=O)CCCc4c(OC)cccc43)CC2)nc(C(C)(C)C)n1` [Example 54, 1-{4-[4-(2-tert-Butyl-6-propyl-pyrimidin-4-yl)piperazin-1-yl]butyl}-6-methoxy-1,3,4,5-tetrahydro-benzo[b]azepin-2-one] registered a Ki in experiment [1] of 2.25 nM. Moreover, the “Selectivity vs. D2L (Ki(D2L)/Ki(D3))” value in experiment [2] is recorded as 25. The matching figures for `CC(C)(C)c1nc(C(F)F)cc(N2CCN(CCCCN3C(=O)CCc4c(O)cccc43)CC2)n1` [Example 36, 1-(4-{4-[2-tert-Butyl-6-(difluoromethyl)pyrimidin-4-yl]piperazin-1-yl}butyl)-5-hydroxy-3,4-dihydroquinolin-2(1H)-one]: 1.18 nM and 41.

Molecule `CCCc1cc(N2CCN(CCCCN3C(=O)CCC4=C3CCCC4=O)CC2)nc(C(C)(C)C)n1` [Example 44, 1-{4-[4-(2-tert-Butyl-6-propyl-pyrimidin-4-yl)piperazin-1-yl]butyl}-4,6,7,8-tetrahydro-1H,3H-quinoline-2,5-dione] registered a Ki in experiment [1] of 1.54 nM. For the same molecule, in experiment [2], the “Selectivity vs. D2L (Ki(D2L)/Ki(D3))” value is listed as 29. For `CCCc1cc(N2CCN(CCCCN3C(=O)CCc4ccccc43)CC2)nc(C(C)(C)C)n1` [Example 37, 1-{4-[4-(2-tert-Butyl-6-propylpyrimidin-4-yl)piperazin-1-yl]butyl}-3,4-dihydroquinolin-2(1H)-one] the same measures were 1.59 nM and 38.

In experiment [1], `CC(C)(C)c1nc(N2CCN(CCCCN3C(=O)CCC4=C3CCCC4=O)CC2)cc(C(F)(F)F)n1` [Example 45, 1-{4-[4-(2-tert-Butyl-6-trifluoromethyl-pyrimidin-4-yl)piperazin-1-yl]butyl}-4,6,7,8-tetrahydro-1H,3H-quinoline-2,5-dione] displayed an inhibition constant Ki of 4.68 nM. Further, in experiment [2], the “Selectivity vs. D2L (Ki(D2L)/Ki(D3))” value stood at 41. Regarding `CCCc1cc(N2CCN(CCCCN3C(=O)CCc4c(OC)cccc43)CC2)nc(C(C)(C)C)n1` [Example 33, 1-{4-[4-(2-tert-Butyl-6-propylpyrimidin-4-yl)piperazin-1-yl]butyl}-5-methoxy-3,4-dihydroquinolin-2(1H)-one], the Ki in experiment [1] came to 1.71 nM. The “Selectivity vs. D2L (Ki(D2L)/Ki(D3))” value in experiment [2] came to 65.
